“Also recorded” adds a separate entry of the source.
Experiments:
[1] = system: oocytes; conditions: literature (Kim et al 2010, Bernhardt et al 2011); cited from earlier work
[2] = system: GV oocytes; test: TPEN treatment of PDE-inhibitor arrested GV oocytes; type: cell-based
From the text: In certain embodiments, zinc modulation is useful for overcoming earlier meiotic arrests. Normally, treatment of GV stage oocytes with broad-spectrum or PDE3-specific phosphodiesterase (PDE) inhibitors results in maintenance of GV arrest due to elevated cAMP levels. […] As such, limiting zinc availability could also be used to overcome GV arrest and allow progression through GVBD in clinical cases of GV arrest. The methods of the present invention are also useful as a secondary treatment for oocytes that remain GV arrested following conventional in vitro maturation, and could be of particular value for use in conjunction with in vitro follicle culture systems currently being developed for use in fertility preservation programs for patients undergoing fertility-threatening cancer treatments, in which methods for overcoming GV arrest are necessary (Xu et al 2006).

[3] = system: MAPK; test: Myelin basic protein (MBP) kinase assay on single eggs (MAPK activity); type: cell-based, mouse; conditions: in vivo ovulated MII eggs, KSOM with 10 μM TPEN, 1 to 8 hours
Protocol: Histone H1 and myelin basic protein (MBP) dual kinase assays were performed as previously described (Svoboda et al., 2000). Dried gels were exposed to Kodak BIOMAX MR films for 12 to 72 hours at −80° C. using Kodak intensifying screens; films were developed, scanned, and analyzed using ImageJ software. Assays were performed on single oocytes, and densitometric analysis is expressed relative to levels in control eggs.

[4] = target: T1, Emi2 (Mus musculus, UniProt Q8CDI2); test: MI arrest induced by Emi2 cRNA injected into GV oocytes, IVM with or without TPEN; type: cell-based; conditions: IVM medium with 10 μM TPEN 14 h
T1 construct: expressed in transfected cells; host or cells: mouse oocytes microinjected with in vitro transcribed cRNA (pIVT vector)
T1 sequence (Q8CDI2 1-640): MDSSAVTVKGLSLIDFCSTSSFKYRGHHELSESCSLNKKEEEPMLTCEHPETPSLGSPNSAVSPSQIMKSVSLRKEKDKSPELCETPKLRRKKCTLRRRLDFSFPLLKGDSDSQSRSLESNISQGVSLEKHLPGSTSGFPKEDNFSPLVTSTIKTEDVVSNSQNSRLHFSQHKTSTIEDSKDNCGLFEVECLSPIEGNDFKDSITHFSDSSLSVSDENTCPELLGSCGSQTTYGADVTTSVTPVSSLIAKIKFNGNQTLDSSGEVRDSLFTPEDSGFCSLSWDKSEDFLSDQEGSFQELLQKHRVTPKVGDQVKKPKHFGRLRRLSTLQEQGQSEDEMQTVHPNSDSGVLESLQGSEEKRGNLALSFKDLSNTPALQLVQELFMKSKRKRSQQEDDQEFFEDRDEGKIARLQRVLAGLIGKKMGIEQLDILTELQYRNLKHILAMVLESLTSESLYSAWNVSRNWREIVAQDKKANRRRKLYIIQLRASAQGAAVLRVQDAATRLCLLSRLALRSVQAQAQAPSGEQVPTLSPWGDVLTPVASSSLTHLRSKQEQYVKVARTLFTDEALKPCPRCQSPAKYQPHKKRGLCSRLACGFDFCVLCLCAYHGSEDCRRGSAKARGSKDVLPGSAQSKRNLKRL
Protocol: Oocytes were denuded of cumulus cells and fixed in a microtubule stabilizing buffer (Ibanez et al., 2005) containing 2% formaldehyde and 1% Triton X-100 for 30 min at 37° C. Oocytes were washed and blocked in PBS containing 0.1M glycine, 3mg/mL BSA, 0.01% Tween 20, and 0.01% sodium azide for at least 1 h and were stored in blocking solution at 4° C. for up to 2 weeks. Oocytes were incubated with anti-tubulin antibody (1:100) for 1 h at 37C. followed by three washes in blocking solution. They were then incubated for 1 h in AlexaFluor-488 conjugated anti-mouse secondary antibody (5μg/mL) and rhodamine-phalloidin (2U/mL), washed three additional times, and mounted in VECTASHIELD with DAPI. Microscopy was performed using a Leica SP5 inverted laser-scanning confocal microscope with a 63x oil immersion objective (Leica Microsystems, Heidelberg, Germany). Images were processed using LAS AF software (Leica Microsystems).
Microinjection was performed essentially as previously described (Bernhardt et al., 2010). GV intact oocytes were collected and manually denuded of cumulus cells in L-15/FBS containing 0.2 mM IBMX, then transferred to drops of L-15 medium containing 0.05% (w/v) polyvinyl alcohol (PVA) and 0.5% (v/v) penicillin-streptomycin (Invitrogen) under light mineral oil on a heated stage for injection. […]

SMILES: c1ccc(CN(CCN(Cc2ccccn2)Cc2ccccn2)Cc2ccccn2)nc1 [TPEN, N,N,N′,N′-tetrakis(2-pyridylmethyl)ethylenediamine]
- meiotic arrest on TPEN treatment during the MI-MII transition [1]: causes meiotic arrest at telophase-I
- progression to MII after transfer back to zinc replete medium ([2]; PDE-inhibitor arrested GV oocytes that resumed meiosis under TPEN): a proportion of these oocytes progress to MII
- meiotic resumption of GV-arrested oocytes ([2]; oocytes held at GV stage with phosphodiesterase inhibitors, TPEN treatment): premature GV breakdown (GVBD) and meiotic progression; also recorded: premature meiotic progression and GV breakdown (GVBD)
- MAPK activity (MBP kinase) in MII eggs [3]: did not change appreciably
- oocytes arrested at MI [4]: 44%
